Assay results: the NIST ThermoML archive (doi:10.1021/je050054u)
± gives the expanded uncertainty stated by the source.

Details: Liquid, Closed cell (Static) method

CCF [fluoroethane]
Details	vapor or sublimation pressure [kPa]
235.69 K	101.5 ± 3
235.74 K	101.7 ± 3
235.79 K	101.9 ± 3
235.84 K	102.2 ± 3
235.89 K	102.4 ± 3
235.94 K	102.6 ± 3
236 K	102.9 ± 3
236.09 K	103.4 ± 3
237.11 K	108.3 ± 3
238.07 K	113.3 ± 3
240.11 K	124.1 ± 3
242.12 K	135.4 ± 3
244.1 K	147.6 ± 3
245.09 K	153.8 ± 3
247.09 K	167.1 ± 3
249.1 K	181.5 ± 3
251.07 K	196.3 ± 3
253.11 K	212.7 ± 3
255.11 K	229.7 ± 3
257.13 K	247.8 ± 3
259.11 K	267.6 ± 3
261.11 K	288 ± 3
263.12 K	309.5 ± 3
264.11 K	320.7 ± 3
265.1 K	332.4 ± 3
266.12 K	344.5 ± 3
267.13 K	356.6 ± 3
268.13 K	369.1 ± 3.1
269.13 K	382 ± 3.1
270.13 K	395.3 ± 3.1
271.13 K	408.8 ± 3.1
272.15 K	422.9 ± 3.1
273.12 K	436.7 ± 3.1
274.11 K	451.2 ± 3.1
275.11 K	466 ± 3.1
276.14 K	481.8 ± 3.1
277.14 K	497.5 ± 3.1
278.17 K	513.9 ± 3.1
279.14 K	529.9 ± 3.1
280.13 K	546.6 ± 3.1
281.13 K	563.9 ± 3.1
282.16 K	581.9 ± 3.1
283.14 K	599.6 ± 3.1
285.18 K	636.5 ± 3.1
287.13 K	675.1 ± 3.2
288.13 K	695.2 ± 3.2
290.14 K	737.5 ± 3.2
292.01 K	777.9 ± 3.2
294.03 K	824.2 ± 3.2
296.04 K	871.8 ± 3.3
298.07 K	921.9 ± 3.3
300.05 K	972.9 ± 3.3
302 K	1024.9 ± 3.4
304.03 K	1081.4 ± 3.4
306.12 K	1141.9 ± 3.4
308.08 K	1200.9 ± 3.5
310.32 K	1270.6 ± 3.5
312.19 K	1330.5 ± 3.6
314.18 K	1398.1 ± 3.6
316.32 K	1472.8 ± 3.7
316.33 K	1473.6 ± 3.7
318.17 K	1539.8 ± 3.8
320.14 K	1613.2 ± 3.8
322.13 K	1690.2 ± 3.9
324.12 K	1770.2 ± 4
326.11 K	1852.2 ± 4
328.13 K	1938.9 ± 4.1
330.15 K	2027 ± 4.2
332.15 K	2119.3 ± 4.3
333.15 K	2167.4 ± 4.4
334.16 K	2215.1 ± 4.4
335.15 K	2263.9 ± 4.5
336.15 K	2313.2 ± 4.5
337.15 K	2363.2 ± 4.6
338.16 K	2414.5 ± 4.6
339.15 K	2465.8 ± 4.7
340.16 K	2518.5 ± 4.8
341.15 K	2572 ± 4.8
342.15 K	2626.3 ± 4.9
343.15 K	2681.7 ± 4.9
344.14 K	2737.4 ± 5
345.15 K	2794.3 ± 5.1
346.15 K	2852.2 ± 5.1
347.15 K	2910.8 ± 5.2
348.15 K	2970.7 ± 5.3
349.15 K	3030.8 ± 5.3
350.15 K	3092.2 ± 5.4
351.15 K	3154.5 ± 5.5
352.15 K	3218 ± 5.6
353.14 K	3282 ± 5.7
354.15 K	3347.6 ± 5.7
355.15 K	3414.2 ± 5.8
356.15 K	3481.2 ± 5.9
357.14 K	3549.5 ± 6
358.14 K	3619.1 ± 6.1
359.14 K	3689.1 ± 6.2
360.15 K	3761.3 ± 6.3
361.15 K	3834 ± 6.3
362.16 K	3908 ± 6.4
363.14 K	3982.2 ± 6.5
364.14 K	4058.4 ± 6.6
364.15 K	4060.2 ± 6.6
365.14 K	4138 ± 6.7
366.15 K	4216.8 ± 6.8
367.15 K	4295.8 ± 6.9
368.16 K	4376.8 ± 7
369.14 K	4460.1 ± 7.2
370.14 K	4543.5 ± 7.3
371.14 K	4627.6 ± 7.4
372.14 K	4713.9 ± 7.5
